{"source": "paper PMC11094580", "about": "(EFSA Journal, 2024)", "key": {"[1]": {"tested_on": "Salmonella typhimurium (TA98, TA100, TA102, TA1535, TA1537) and E. coli WP2uvrA", "experiment": "Bacterial reverse mutation assay", "format": "cell-based", "conditions": "for concentration with reduction in growth of bacterial background lawns: plate incorporation; for concentration with reduction of bacterial background lawns: pre-incubation"}, "Wistar rats [2]": {"tested_on": "Wistar rats", "experiment": "In vivo comet assay in liver and duodenum", "parameters": "species or system rat", "conditions": "500, 1000, 2000 mg/kg bw per day, Wistar rats, M, gavage"}, "Wistar rats [3]": {"tested_on": "Wistar rats", "experiment": "In vivo micronucleus assay in peripheral blood", "parameters": "species or system rat"}, "[4]": {"conditions": "ref Bugianesi et al. (2002), cited from earlier work"}, "[5]": {"tested_on": "Intestinal bacteria isolated from human faeces", "conditions": "5 mg flavonoids in 50 mL broth, 2 days, anaerobic; ref Kim et al. (1998); cited from earlier work"}, "[6]": {"target": "simvastatin metabolism in rat liver microsomes", "conditions": "ref Ubeaud et al. (1999); cited from earlier work"}, "[7]": {"conditions": "ref Gardana et al. (2007), cited from earlier work"}, "Wistar rats [8]": {"tested_on": "Wistar rats", "conditions": "Gavage, M, 3/group; ref Ortiz‐Andrade et al. (2008); cited from earlier work"}, "Wistar rats [9]": {"tested_on": "Wistar rats", "conditions": "ref Selvam and Kaliyaperumal (2015), cited from earlier work"}, "CYP2B6": {"tested_on": "CYP2B6", "conditions": "concentrations up to 10 μM; ref Lu et al. (2011); cited from earlier work"}, "[10]": {"experiment": "Solubility of naringenin in various solvents", "format": "physicochemical", "conditions": "for Naringenin concentration (solubility): 25°C"}, "[11]": {"tested_on": "Bifidobacterium longum R0175", "conditions": "25 μg/mL, cultures of B. longum; ref Pereira‐Caro et al. (2016); cited from earlier work"}, "[12]": {"conditions": "24 h urine, ref Aschoff et al. (2016), cited from earlier work"}, "[13]": {"tested_on": "felodipine metabolism by pig intestinal tissue slices", "conditions": "ref Fasinu et al. (2010); cited from earlier work"}, "[14]": {"tested_on": "human peripheral blood lymphocytes", "experiment": "In vitro micronucleus assay with FISH analysis"}, "[15]": {"tested_on": "felodipine metabolism in human liver microsomes", "conditions": "substrate felodipine; ref Fasinu et al. (2013), Ho et al. (2001); cited from earlier work"}, "[16]": {"conditions": "cited from earlier work"}, "[17]": {"conditions": "ref Ma et al. (2006), cited from earlier work"}, "[18]": {"conditions": "ref Kanaze et al. (2007), cited from earlier work"}}, "note": "Like-named read-outs stand apart in the source and are kept apart here."}
{"smiles": "O=C1CC(c2ccc(O)cc2)Oc2cc(O)cc(O)c21", "note": "(stereo not shown) [naringenin, 4H‐1‐Benzopyran‐4‐one, 2,3‐dihydro‐5,7‐dihydroxy‐2‐(4‐hydroxyphenyl)‐]", "values": [{"measurement": "Result", "setting": "[1]; Experiment 1: 1.5–5000 μg/plate (+/− S9, plate incorporation)", "value": "Negative"}, {"measurement": "Result", "setting": "[1]; Experiment 2: 1.5–5000 μg/plate (+/− S9, pre‐incubation)", "value": "Negative"}, {"measurement": "frequency of revertant colonies", "setting": "[1]; TA102, 50 μg/plate, absence of S9‐mix", "value": "262 ± 23.8"}, {"measurement": "concentration with reduction in growth of bacterial background lawns", "setting": "[1]; TA1537, +/− S9", "value": "≥ 1500", "unit": "μg/plate"}, {"measurement": "concentration with reduction in growth of bacterial background lawns", "setting": "[1]; all bacterial strains, +/− S9", "value": 5000, "unit": "μg/plate"}, {"measurement": "concentration with reduction of bacterial background lawns", "setting": "[1]; TA98 and E. coli WP2uvrA, +/− S9", "value": 5000, "unit": "μg/plate"}, {"measurement": "concentration with reduction of bacterial background lawns", "setting": "[1]; TA100, TA102, TA1535 and TA1537, +/− S9", "value": "≥ 1500", "unit": "μg/plate"}, {"measurement": "Result", "setting": "Wistar rats [2]", "value": "Negative"}, {"measurement": "% MNPCE frequency", "setting": "Wistar rats [3]; 500 mg/kg bw per day", "value": "0.06 ± 0.01", "unit": "%"}, {"measurement": "% MNPCE frequency", "setting": "Wistar rats [3]; 2000 mg/kg bw per day", "value": "0.06 ± 0.02", "unit": "%"}, {"measurement": "maximum tolerated dose (MTD)", "setting": "Wistar rats [3]; gavage at 0, 24 and 45 h, male and female rats", "value": 2000, "unit": "mg/kg bw per day"}, {"measurement": "% MNPCE frequency", "setting": "Wistar rats [3]; mid‐dose (1000 mg/kg bw per day), male rats, blood 3 h after last administration", "value": "0.08 ± 0.01", "unit": "%"}, {"measurement": "C max", "setting": "[4]; 3.8 mg (14 μmol), tomato paste/oil", "value": "32 ± 8", "unit": "ng/mL"}, {"measurement": "unconjugated naringenin in plasma", "setting": "[4]; 3.8 mg, tomato paste test meal", "value": "did not find unconjugated naringenin in plasma samples"}, {"measurement": "Plasma half-life", "setting": "[4]; 3.8 mg, tomato paste/oil", "value": "Decline by 2 h and later"}, {"measurement": "Results: bacterial metabolism", "setting": "[5]", "value": "transformed to phenolic acids"}, {"measurement": "Ki", "setting": "[6]", "value": 30, "unit": "µM"}, {"measurement": "C max (plasma naringenin)", "setting": "[7]; BOJ 150 mL, 6 mg (22 μmol)", "value": 16.4, "unit": "ng/mL"}, {"measurement": "C max (plasma naringenin)", "setting": "[7]; BOJ 300 mL, 12 mg (44 μmol)", "value": 34, "unit": "ng/mL"}, {"measurement": "LD50", "setting": "Wistar rats [8]", "value": "> 5000", "unit": "mg/kg bw"}, {"measurement": "LD50", "setting": "Wistar rats [9]; Gavage, M, 10/group, arithmetic method", "value": 340, "unit": "mg/kg bw"}, {"measurement": "LD50", "setting": "Wistar rats [9]; rats, considered not reliable by the Panel", "value": "about 330 mg/kg bw"}, {"measurement": "inhibition", "setting": "CYP2B6", "value": "No appreciable inhibition"}, {"measurement": "solubility", "setting": "[10]; 80% ethanol, 25 °C, organic solvent or mixture", "value": "~60", "unit": "mg/mL"}, {"measurement": "Solubility in ethanol", "setting": "[10]; 95% ethanol", "value": "Soluble"}, {"measurement": "Naringenin concentration (solubility)", "setting": "[10]; Ethanol", "value": "10 % (w/w)"}, {"measurement": "Naringenin concentration (solubility)", "setting": "[10]; Ethanol, 80%", "value": "5 % (w/w)"}, {"measurement": "Naringenin concentration (solubility)", "setting": "[10]; Propylene glycol", "value": "2.5 % (w/w)"}, {"measurement": "solubility", "setting": "[10]; ethanol, 25 °C, organic solvent or mixture", "value": "~125", "unit": "mg/mL"}, {"measurement": "solubility", "setting": "[10]; in water", "value": "Almost insoluble"}, {"measurement": "Solubility in other", "setting": "[10]; other solvents", "value": "Soluble in ether and benzene"}, {"measurement": "solubility", "setting": "[10]; propylene glycol, 25 °C, organic solvent or mixture", "value": "~25", "unit": "mg/mL"}, {"measurement": "solubility", "setting": "[10]; water, 25 °C", "value": 0.05, "unit": "mg/mL"}, {"measurement": "Recovery", "setting": "[11]", "value": 88, "unit": "%"}, {"measurement": "proportion of naringenin excreted in the urine", "setting": "[12]; after orange fruit (400 g)", "value": 12.9, "unit": "%"}, {"measurement": "proportion of naringenin excreted in the urine", "setting": "[12]; after pasteurised orange juice (719 g)", "value": 20.3, "unit": "%"}, {"measurement": "IC50", "setting": "[13]", "value": 180, "unit": "µM"}, {"measurement": "MN centromere-negative (FISH analysis)", "setting": "[14]; 4‐h treatment with or without S9‐mix, naringenin 75, 200 and 250 μg/mL", "value": "> 64", "unit": "%"}, {"measurement": "Result", "setting": "[14]; 125, 150, 200 μg/mL (4 h + 24 h, +S9)", "value": "Positive FISH analysis indicates that naringenin induced micronuclei by a clastogenic mechanism"}, {"measurement": "Result", "setting": "[14]; 125, 150, 200, 250 μg/mL (4 h + 24 h, –S9)", "value": "Positive FISH analysis indicates that naringenin induced micronuclei by a clastogenic mechanism"}, {"measurement": "MNBN frequency", "setting": "[14]; 24 h + 24 h treatment", "value": "no statistically significant increase"}, {"measurement": "IC50", "setting": "[15]", "value": 122, "unit": "µM"}, {"measurement": "increase of solubility in water upon change of pH", "setting": "[16]; 25°C, pH from 6.5 to 8.5, ref Lucas‐Abellán et al. (2019)", "value": "~ 20 fold"}, {"measurement": "increase of solubility in water upon increase of temperature", "setting": "[16]; from 25 to 35°C, ref Zhang et al. (2013), Lucas‐Abellán et al. (2019)", "value": 2, "unit": "factor"}, {"measurement": "C max for total naringenin", "setting": "[17]; 30 mg/kg bw", "value": 16.9, "unit": "ng/mL"}, {"measurement": "C max of unconjugated naringenin", "setting": "[17]; 30 mg/kg bw", "value": 2.9, "unit": "ng/mL"}, {"measurement": "time to C max for total naringenin (including the conjugates)", "setting": "[17]; 30 mg/kg bw", "value": 0.5, "unit": "h"}, {"measurement": "C max for total naringenin", "setting": "[17]; 90 mg/kg bw", "value": 28, "unit": "ng/mL"}, {"measurement": "C max of unconjugated naringenin", "setting": "[17]; 90 mg/kg bw", "value": 3.7, "unit": "ng/mL"}, {"measurement": "plasma half-life of total naringenin", "setting": "[17]; 90 mg/kg bw", "value": 7.6, "unit": "h"}, {"measurement": "time to C max for total naringenin (including the conjugates)", "setting": "[17]; 90 mg/kg bw", "value": 2, "unit": "h"}, {"measurement": "C max for total naringenin", "setting": "[17]; 270 mg/kg bw", "value": 43.8, "unit": "ng/mL"}, {"measurement": "C max of unconjugated naringenin", "setting": "[17]; 270 mg/kg bw", "value": 4.4, "unit": "ng/mL"}, {"measurement": "plasma half-life of total naringenin", "setting": "[17]; 270 mg/kg bw", "value": 10.5, "unit": "h"}, {"measurement": "time to C max for total naringenin (including the conjugates)", "setting": "[17]; 270 mg/kg bw", "value": 2, "unit": "h"}, {"measurement": "time to C max of unconjugated naringenin", "setting": "[17]; 30, 90 or 270 mg/kg bw oral gavage", "value": "≤ 15", "unit": "min"}, {"measurement": "naringenin excreted in bile", "setting": "[17]; bile duct-cannulated rats", "value": 12, "unit": "%"}, {"measurement": "naringenin excreted in urine", "setting": "[17]", "value": 6.25, "unit": "%"}, {"measurement": "Cmax", "setting": "[18]; single oral 135 mg (496 μmol) capsule", "value": 7.5, "unit": "µM"}, {"measurement": "cumulative urinary excretion, percentage of administered dose", "setting": "[18]; single oral 135 mg capsule, 24 h after dosing", "value": "5.81 ± 0.81", "unit": "%"}, {"measurement": "T max (time of peak plasma level)", "setting": "[18]; single oral 135 mg capsule", "value": 4, "unit": "h"}, {"measurement": "peak plasma concentration (total naringenin)", "setting": "[18]; single oral 135 mg capsule", "value": 7.4, "unit": "µM"}, {"measurement": "time of first appearance in plasma after dosing", "setting": "[18]; single oral 135 mg capsule", "value": 20, "unit": "min"}, {"measurement": "Half-life of elimination (plasma)", "setting": "[18]; single oral 135 mg capsule, listed as NAR‐A", "value": "T ½ ~ 2.3 h"}]}
